# Source: patent US4973554A, “Affinity process for trypsin purification and stabilization” (National Research Council of Canada, priority 1987, dated 1990)
# T1: trypsin (Bos taurus, UniProt P00760)
# T1 sequence (P00760 24-246): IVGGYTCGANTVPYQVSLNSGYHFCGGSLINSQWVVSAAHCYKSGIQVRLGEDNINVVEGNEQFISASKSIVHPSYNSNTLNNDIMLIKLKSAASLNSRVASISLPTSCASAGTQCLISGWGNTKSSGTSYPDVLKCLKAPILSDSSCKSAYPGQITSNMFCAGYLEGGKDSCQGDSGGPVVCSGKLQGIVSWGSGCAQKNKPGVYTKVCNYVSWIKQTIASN
# B1: trypsin (protein, UniProt P00760 24-246, looked up)
# Serine protease 1: T1 sequence (P00760 24-246)
# Columns and labels:
# [1] = target: T1, trypsin; assay: Elution of bound trypsin from affinity polymer during ultrafiltration; details: for elution of bound trypsin from polymer 5:1 by eluting solution: 500 mM arginine with 10 mM Ca++ in Tris pH 8, 2M KCl with 10 mM Ca++ in pH 8 Tris, 10 mM m-aminobenzamidine, data not shown
# Procedure: Investigation was next conducted on the eluting characteristics of four agents (FIG. 1).
# Tests were also performed to determine whether the elution of trypsin with arginine was affected by the acrylamide:monomer ratio and the polymer concentration.
# [2] = target: T1, trypsin; assay: Trypsin inhibition kinetics, substrate Nα-benzoyl-L-arginine p-nitroanilide; type: biochemical
# [3] = system: trypsin; details: Adamski-Medda et al, 1981; cited from earlier work
# [4] = system: chymotrypsin; details: Adamski-Medda et al, 1981; cited from earlier work
# [5] = target: T1, trypsin; details: with respect to substrate benzoyl-L-arginine p-nitroanilide; literature; cited from earlier work
# [6] = target: T1, trypsin; assay: Trypsin storage stability with/without affinity polymer (trypsin activity); type: physicochemical; details: without affinity polymer
# Procedure: Trypsin can be adsorbed by the affinity polymer and stored until this enzyme is required for use or further processing. […] Without the affinity polymer, the trypsin retained only half of its activity at 25° C. after three days even though this solution was stabilized by adding an appropriate amount of calcium. It was further shown that at 4° C. without the affinity polymer trypsin retained approximately 70% of its original activity after 10 days.
molecule,measurement,setting,value
[Cl-].[K+] [KCl],elution of bound trypsin from polymer 5:1 by eluting solution,[1],eluted easily
"N=C(N)NCCC[C@H](N)C(=O)O [arginine, L-arginine]",Ki,[2],41 ± 3 mM
same,mechanism of trypsin inhibition,"[2]; with respect to substrate Nα-benzoyl-L-arginine p-nitroanilide, data not shown",competitive inhibitor
same,elution of bound trypsin from polymer 5:1 by eluting solution,[1],eluted easily
same,eluting characteristics of agents (FIG. 1),"[1]; polymer 5:1 at 0.75% containing 300 mg trypsin, four agents compared",most effective eluting agent
dextran-p-aminobenzamidine,trypsin in the filtrate in presence of macroligand,[3],24%
same,chymotrypsin in the filtrate in presence of macroligand,[4],65%
N=C(N)c1cccc(N)c1 [m-aminobenzamidine],"inhibitor strength among ortho, meta, para aminobenzamidine",[2]; position of amino group compared,strongest inhibitor
same,elution of bound trypsin from polymer 5:1 by eluting solution,[1],eluted easily
same,trypsin inhibition kinetics (mechanism),[5],competitive manner
B1,original trypsin activity retained,"[6]; 4° C., 10 days",approximately 70%
same,trypsin activity retained,"[6]; 25° C., three days, calcium added",half
